Data: patent publication US7122683B2, “Amides useful as monoamine re-uptake inhibitors” (Pfizer Inc., priority 2004, dated 2006)
Structures can show the parent of a compound that is named as a salt.

Columns and labels:
[1] = biological target: T1, human serotonin transporter (hSERT) (Homo sapiens, UniProt P31645); assay: SPA radioligand binding at human serotonin transporter (3H-citalopram); details: hSERT membranes from HEK-293 cells, Ki from IC50 by Cheng-Prusoff, geometric mean, read-out: SRI Ki
T1 construct: expressed in transfected cells; host or cells: HEK-293
T1 sequence (P31645 whole entry): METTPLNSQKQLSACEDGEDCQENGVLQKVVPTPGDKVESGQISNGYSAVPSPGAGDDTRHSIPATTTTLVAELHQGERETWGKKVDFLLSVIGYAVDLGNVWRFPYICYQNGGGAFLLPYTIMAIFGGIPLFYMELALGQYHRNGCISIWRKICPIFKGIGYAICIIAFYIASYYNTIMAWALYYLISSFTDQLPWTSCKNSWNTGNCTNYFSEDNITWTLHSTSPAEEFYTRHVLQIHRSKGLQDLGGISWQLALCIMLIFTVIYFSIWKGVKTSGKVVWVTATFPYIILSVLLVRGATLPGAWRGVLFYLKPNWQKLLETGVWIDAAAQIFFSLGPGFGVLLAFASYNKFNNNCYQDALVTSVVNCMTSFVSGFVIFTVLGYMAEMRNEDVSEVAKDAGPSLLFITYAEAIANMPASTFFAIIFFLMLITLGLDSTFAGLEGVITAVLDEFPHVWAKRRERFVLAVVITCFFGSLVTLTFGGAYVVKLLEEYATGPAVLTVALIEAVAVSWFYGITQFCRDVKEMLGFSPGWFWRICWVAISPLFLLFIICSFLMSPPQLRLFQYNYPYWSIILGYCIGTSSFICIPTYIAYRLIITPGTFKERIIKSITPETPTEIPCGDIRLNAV
Experimental: (§1) The compounds were tested for biological activity by their ability to inhibit binding of selective radioligands at the human serotonin and noradrenaline transporters (SERT and NET, respectively), using scintillation proximity assay (SPA) technology. The SPA binding was performed using cellular membrane preparations prepared from cell lines expressing human cDNA encoding either SERT or NET (hSERT, hNET), using the radioligands ^3H-citalopram and ^3H-nisoxetine.
(§2) Human embryonic kidney cells (HEK-293) expressing each transporter were maintained as a continuous culture, using standard cell culture techniques, in 50 mL of growth medium (see Media and Buffers for composition) in 225 cm^2 flasks, at 37° C. in a humidified atmosphere with 5% CO2 present. Cells were passaged from a 90% confluent monolayer at a ratio of 1:3–1:4.
(§3) For cell harvesting, the growth medium was removed from the monolayer and the cells were incubated with cell dissociation solution (Sigma) until showing signs of dissociation. The cells were subsequently knocked from the base of the flask and pelleted by centrifugation for storage (frozen at −80° C.) prior to further use.
(§4) Cell pellets were thawed on ice and resuspended in 3 mL of membrane preparation buffer (see Media and Buffers for composition) per 1 mL of packed cell volume, using a vortex mixer to disperse the cell pellet. After incubation on ice for 10 minutes, the suspension was homogenised for four individual 10 second intervals using a hand-held homogeniser. The homogenate was then centrifuged at 1075×g for 20 minutes at 4° C.
(§5) The supernatants were then collected and retained. […]
(§6) The pooled supernatants were centrifuged at 35000×g for 30 minutes at 4° C., and the supernatants discarded. […] Protein concentrations were then measured and the membrane suspension was finally frozen in aliquots of set volume and stored at −80° C. prior to use in assays.
(§7) The specific SPA bead type differed for each transporter, wheat germ agglutinin-coated yttrium silicate (YSi WGA) SPA beads were used for hSERT and WGA-coated polyvinyltoluene (PVT WGA) SPA beads for hNET assays. For each batch of membrane used, optimal concentrations of bead and membrane were determined
(§8) Tritiated radioligands specific to each transporter (^3H-citalopram for hSERT and ^3H-nisoxetine for hNET) were used. The assay free radioligand concentration was expressed as a percentage of the total free radioligand concentration to give an estimate of the radioligand depletion. […]
(§9) The affinity of the specific radioligand for the respective transporter was determined for each membrane batch at the selected protein and bead concentrations. […]
(§10) The mean KD for a radioligand at a batch of membranes was determined from data from a minimum of three separate assays. […]

[2] = biological target: T2, human noradrenaline transporter (hNET) (Homo sapiens, UniProt P23975); assay: SPA radioligand binding at human noradrenaline transporter (3H-nisoxetine); details: hNET membranes from HEK-293 cells, Ki from IC50 by Cheng-Prusoff, geometric mean, read-out: NRI Ki
T2 construct: expressed in transfected cells; host or cells: HEK-293
T2 sequence (P23975 whole entry): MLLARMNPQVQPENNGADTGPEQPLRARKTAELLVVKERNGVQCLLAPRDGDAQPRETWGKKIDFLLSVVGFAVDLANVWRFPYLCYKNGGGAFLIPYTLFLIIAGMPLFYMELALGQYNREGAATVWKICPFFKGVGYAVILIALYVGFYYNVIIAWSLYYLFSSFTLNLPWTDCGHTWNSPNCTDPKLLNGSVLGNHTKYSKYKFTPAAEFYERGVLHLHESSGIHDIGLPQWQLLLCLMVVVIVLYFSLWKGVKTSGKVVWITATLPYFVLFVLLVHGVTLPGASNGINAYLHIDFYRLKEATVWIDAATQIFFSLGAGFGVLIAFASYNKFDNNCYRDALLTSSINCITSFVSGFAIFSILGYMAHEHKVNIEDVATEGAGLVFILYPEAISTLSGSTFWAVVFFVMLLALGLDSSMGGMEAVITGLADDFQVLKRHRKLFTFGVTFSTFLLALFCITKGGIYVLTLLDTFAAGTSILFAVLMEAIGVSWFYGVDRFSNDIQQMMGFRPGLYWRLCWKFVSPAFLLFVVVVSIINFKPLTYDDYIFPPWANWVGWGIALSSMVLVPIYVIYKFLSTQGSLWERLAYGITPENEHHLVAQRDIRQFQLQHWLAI
Experimental: as §1, §2, §3, §4, §5, §6, §7, §8, §9, §10

SMILES	Ki [1]	Ki [2]
O=C(c1cccc(Cl)c1Cl)N(C1CCCC1)[C@H]1CCNC1 [Example 1, 2,3-dichloro-N-cyclopentyl-N-[(3S)pyrrolidin-3-yl]benzamide hemi-edisylate]	5 nM	15 nM
O=C(c1cccc(Cl)c1Cl)N(C1CCCCC1)[C@H]1CCNC1 [Example 6, 2,3-dichloro-N-cyclohexyl-N-[(3S)-pyrrolidin-3-yl]benzamide hydrochloride]	9 nM	11 nM
O=C(c1ccccc1Cl)N(C1CCCCC1)[C@H]1CCNC1 [Example 14, 2-chloro-N-cyclohexyl-N-[(3S)pyrrolidin-3-yl]benzamide]	11 nM	9 nM
Cc1c(Cl)cccc1C(=O)N(CC1(C)CC1)[C@H]1CCNC1 [Example 20, 3-chloro-2-methyl-N-[(1-methylcyclopropyl)methyl]-N-[(3S)pyrrolidin-3-yl]benzamide hydrochloride]	3 nM	14 nM
